The values below come from ChEMBL document CHEMBL3045028, “Synthesis, AntiBacteriol, and Antifungal Activities of Some New Benzimidazoles” (1992).

What all share (format): functional
Test [1] relates to Xanthomonas phaseoli pv. phaseoli. As to the kind of experiment: In vitro antibacterial activity against Xanthomonas campestris pv. phaseoli assessed as inhibition at 0.1 %.
Test [2] concerns Pseudomonas viridiflava. As to the kind of experiment: In vitro antibacterial activity against Pseudomonas viridiflava 8 assessed as inhibition at 0.1 %.
Test [3] concerns Alternaria alternata. As to the kind of experiment: In vivo antifungal activity against Alternaria tenuis. Details: concentration or dose not given beside the values.
The subject of test [4] is Pseudomonas savastanoi pv. phaseolicola. As to the kind of experiment: In vitro antibacterial activity against Pseudomonas syringae pv. phaseolicola E81 assessed as inhibition at 0.1 %.
Test [5] relates to Pseudomonas savastanoi pv. glycinea. As to the kind of experiment: In vitro antibacterial activity against Pseudomonas syringae pv. glycinea S1 assessed as inhibition at 0.1 %.
For test [6], the system named is Botrytis cinerea. As to the kind of experiment: In vitro antifungal activity against Botryotinia fuckeliana assessed as inhibition at 0.1 %.
The test system of test [7] is Xanthomonas euvesicatoria. As to the kind of experiment: In vitro antibacterial activity against Xanthomonas euvesicatoria P-2092 assessed as inhibition at 0.1 %.
Test [8] relates to Xanthomonas campestris pv. campestris. As to the kind of experiment: In vitro antibacterial activity against Xanthomonas campestris pv. campestris KF2 assessed as inhibition at 0.1 %.
Test [9] has as its system Agrobacterium tumefaciens. As to the kind of experiment: In vivo antibacterial activity against Agrobacterium tumefaciens infected carrots assessed as effective at 0.01%.
For test [10], the system named is Agrobacterium sp. As to the kind of experiment: In vitro antibacterial activity against Agrobacterium radiobacter pv. tumefaciens assessed as inhibition at 0.1 %.

Each structure is given as a SMILES string. Active and inactive are the calls of the source. The rule behind the calls is not given here.

In the case of `Nc1nc2ccccc2n1Cc1cccc(Cl)c1`, the “diameter of the inhibition zone (DIZ)” value in [1] is on record as 3 cm; in test [2], 3 cm; in test [5] it was 2 cm; in [7], 3 cm; in [8], 3 cm. Also, the Efficacy in [3] is on record as 50%. The inhibition entry in test [4] and in [6] was “inactive” throughout.
Turning to `O=[N+]([O-])c1ccc(/C=N/c2nc3ccccc3n2Cc2cccc(Cl)c2)o1`, the inhibition entry in test [1], in test [2], in test [4] and in test [8] was “inactive” in each case. The “diameter of the inhibition zone (DIZ)” value in test [5] is 1 cm; in test [6] it was 1 cm; in test [7] it was 3 cm. Further, the Efficacy in test [9] came out at 100%.
Consider `Cc1cc2ncn(Cc3cccc(F)c3)c2cc1C`, for which the Efficacy in [3] worked out at 50%; in test [9], 70%. Also, the “diameter of the inhibition zone (DIZ)” value in test [7], in test [8] and in test [10] was 3 cm throughout.
Consider `CCCCCCn1c(N)nc2ccccc21`, for which the “diameter of the inhibition zone (DIZ)” value in test [6] was found to be 3 cm. Further, the Efficacy in test [9] is 30%.
Regarding `CCn1c(/N=C/c2ccc([N+](=O)[O-])o2)nc2ccccc21`, the “diameter of the inhibition zone (DIZ)” value worked out at 3 cm in test [6], 1 cm in [7], 3 cm in test [8] and 3 cm in test [10]. Further, the Efficacy in test [9] was 70%.
For the molecule `Cc1cc2ncn(Cc3ccc(Cl)cc3)c2cc1C`, the inhibition result in test [1], in test [2], in [4], in test [5] and in test [6] was “inactive” throughout. Moreover, the “diameter of the inhibition zone (DIZ)” value in test [7] and in test [8] was 1 cm each time. Further, in test [9], the Efficacy stood at 30%.
In the case of `Cc1ccc(Cn2c(/N=C/c3ccc([N+](=O)[O-])o3)nc3ccccc32)cc1`, the inhibition result in [1], in [2], in test [4], in test [7] and in test [8] was “inactive” in each case. Further, the “diameter of the inhibition zone (DIZ)” value in [5] and in test [6] was 1 cm each time. The Efficacy in test [9] is 70%.
In test [3], `COc1cccc(Cn2c(N)nc3ccccc32)c1` returned an Efficacy of 100%. Further, the “diameter of the inhibition zone (DIZ)” value in test [7], in test [8] and in test [10] was 3 cm throughout.
On to `CCCCn1c(N)nc2cc(C)c(C)cc21`, for which, in test [3], the Efficacy worked out at 100%. Moreover, the “diameter of the inhibition zone (DIZ)” value came to 2 cm in test [7], 2 cm in test [8] and 3 cm in [10].
In the case of `Cc1cc2nc(/N=C/c3ccc([N+](=O)[O-])o3)n(Cc3ccc(Cl)cc3)c2cc1C`, the “diameter of the inhibition zone (DIZ)” value was determined as 3 cm in test [1]; 1 cm in [2]; 2 cm in [4]; 2 cm in [5]; 3 cm in test [6]; 1 cm in [7]. For the same molecule, in [8], the “diameter of the inhibition zone (DIZ)” value stood at 1 cm. In test [9], the Efficacy is 70%.
For `O=[N+]([O-])c1ccc(/C=N/c2nc3ccccc3n2Cc2ccccc2Cl)o1`, the inhibition entry in [1], in [2], in test [7] and in test [8] was “inactive” each time. For the same molecule, the “diameter of the inhibition zone (DIZ)” value in test [4] turned out to be 1 cm; in test [5] it was 3 cm; in [6] it was 1 cm. Moreover, the Efficacy in [9] turned out to be 70%.
As to `CCCCn1c(N)nc2ccccc21`, the results for the Efficacy in test [3] and in test [9] were 50% and 30%, respectively. Also, the “diameter of the inhibition zone (DIZ)” value in test [6], in test [7], in test [8] and in test [10] was 3 cm each time.
Take `COc1cccc(Cn2c(N)nc3cc(C)c(C)cc32)c1`: the Efficacy in test [3] is recorded as 100%.
On to `CCCCn1c(/N=C/c2ccc([N+](=O)[O-])o2)nc2ccccc21`, for which the “diameter of the inhibition zone (DIZ)” value in test [6] is reported as 3 cm; in test [7] it was 1 cm; in [8], 3 cm; in [10], 3 cm. For the same molecule, the Efficacy in [9] was found to be 70%.
On to `CCCCCCn1c(/N=C/c2ccc([N+](=O)[O-])o2)nc2ccccc21`, for which the “diameter of the inhibition zone (DIZ)” value in test [7] is 2 cm; in test [8], 2 cm; in test [10], 3 cm. Further, the Efficacy in [9] worked out at 70%.
For `Cc1cccc(Cn2c(N)nc3ccccc32)c1`, the Efficacy in test [3] worked out at 100%. In addition, the “diameter of the inhibition zone (DIZ)” value was 3 cm in test [7], 3 cm in [8] and 2 cm in test [10].
As to `Cc1cc2ncn(Cc3ccccc3Cl)c2cc1C`, the inhibition entry in [1], in test [2] and in test [7] was “inactive” in each case. The Efficacy in test [3] is reported as 50%. Also, the “diameter of the inhibition zone (DIZ)” value in test [4], in test [5], in test [6] and in test [8] was 1 cm in each case.
